Active and inactive are the calls of the source.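 Rule for the calls: active = AC50, the dose giving half-maximal effect, exceeds a fixed cutoff for a compound that rescues yeast growth under heat; inactive = the rest, inconclusive results apart.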

The assay has as its system S. cerevisiae Burl-1 ts mutant growth, BacTiter-Glo, 38.5C 24 h. Description: growth induction of Burl-1 ts yeast mutant, dose response, counter-screen for SUMOylation pathway inhibitor project, whole organism, S. cerevisiae, luminescence (AID 463199).

Regarding `Cc1onc(-c2ccccc2Cl)c1C(=O)N1CCc2ccccc2C1`, the AC50 is > 42 µM (inactive). The result for `CC(C)C(CC(=O)NCc1ccco1)c1ccco1` (configuration not stated) reads > 42 µM (inactive). As to `Cc1ccc(CNC(=O)c2ccc(N3CCC4(CC3)CC(c3ccccc3)=NO4)c(NC(=O)c3cccc(C)c3)c2)cc1`, the AC50 was > 42 µM (inactive). Consider `C=CCOc1ccccc1CN1CCCC(CCC(=O)N(C)CCc2ccccn2)C1` (configuration not stated), for which the AC50 was > 21 µM (inactive). In the case of `CC(C)C(NC(=O)c1ccccc1)C(=O)NCC(c1ccccc1)N(C)C` (configuration not stated), the AC50 is > 42 µM (inactive). With `COc1ccc(C(=O)Sc2ccc(Cl)cc2)cc1OC`, the AC50 is > 42 µM (inactive). The result for `Cc1cccc(C(=O)NCC(=O)N2CCN(c3ccc(Cl)cc3)CC2)c1` reads > 42 µM (inactive); that for `COc1ccccc1-c1nc2ccccc2nc1-c1ccccc1OC`, > 42 µM (inactive); that for `CC1(C)CC(=O)C2=C(C1)OC(N)=C(C#N)C21C(=O)N(CN2CCOCC2)c2ccccc21` (configuration not stated), > 42 µM (inactive). `CCc1ccc2c(c1)C(c1ccc([N+](=O)[O-])cc1)=NNC(c1ccc(C)cc1)=N2`: the AC50 is > 42 µM (inactive).

As for `COC(=O)C1CCN(S(=O)(=O)Cc2ccccc2)CC1`, the AC50 is > 42 µM (inactive). Regarding `CCCCC(O)(CCCC)C(=O)NN(C(=O)OC)c1ccc(C)cc1`, the AC50 is > 42 µM (inactive).

As for `CC(=O)Nc1ccc(-c2csc(NC(=O)C3CC(=O)N(c4ccc5c(c4)OCCO5)C3)n2)cc1` (configuration not stated), the AC50 is > 42 µM (inactive). As to `O=C(COC(=O)c1ccc([N+](=O)[O-])o1)Nc1ncc(Cl)cc1Cl`, the AC50 is > 42 µM (inactive). Regarding `Cc1nnc(C)n1/N=C/c1cc2ccccc2nc1Cl`, the AC50 was > 42 µM (inactive). Turning to `Cc1cc(C)cc(NC(=O)C2CCCN(S(=O)(=O)c3ccc4[nH]c(=O)ccc4c3)C2)c1` (configuration not stated), the AC50 is > 42 µM (inactive). `C[C@H](NC(=O)OC(C)(C)C)C(=O)NCC1CCC(C(=O)N[C@@H](Cc2ccccc2)C(=O)O)CC1` (some centres not stated): the AC50 is > 42 µM (inactive). For `COc1ccc(NC(=O)C2CCCN(C(=O)Nc3cccc(OC)c3)C2)cc1` (configuration not stated), the AC50 was > 42 µM (inactive).

As to `Cc1[nH]c(C)c(S(=O)(=O)NCC(C)c2ccccc2)c1C(=O)N1CCCCC1` (configuration not stated), the AC50 is > 42 µM (inactive). As for `Oc1cccc2ccc(/C=C/c3ccccc3Br)nc12`, the AC50 is > 42 µM (inactive). The result for `CCOC(=O)Cn1c(=O)oc2cc(S(=O)(=O)NC(C)(C)CC)ccc21` reads > 42 µM (inactive).

Consider `Cn1nc(C(=O)NCCc2ccc(Cl)cc2)c2c1-c1ccccc1S(=O)(=O)C2`, for which the AC50 is > 42 µM (inactive). With `COc1ccc(-c2cn(-c3ccc(C)cc3)c(=O)n2CC(=O)Nc2ccc(OC)c(OC)c2)cc1` the figure was > 42 µM (inactive); with `O=C(O)CC(NC(=O)c1ccc2c(c1)OCO2)c1cccc([N+](=O)[O-])c1` (configuration not stated), > 42 µM (inactive). Regarding `Oc1c(Br)cc(Br)cc1/C=N/n1c(-c2ccccc2)n[nH]c1=S`, the AC50 is > 42 µM (inactive). The result for `CC1(C)CNc2cc([N+](=O)[O-])ccc2S1` reads > 42 µM (inactive); that for `COC(=O)C1=C(C)NC(C)=C([N+](=O)[O-])C1c1ccccc1C(F)(F)F` (configuration not stated), > 42 µM (inactive). As for `Cc1csc(CNc2ncnc3ccc(-c4ccccc4Cl)cc23)c1`, the AC50 was > 42 µM (inactive). With `Cc1ccc2cccc(OCc3nnc(SCC(=O)O)n3C)c2n1`, the AC50 was > 42 µM (inactive). `O=C(N/N=C/c1cccc([N+](=O)[O-])c1)C1COc2ccccc2O1` (configuration not stated): the AC50 was > 42 µM (inactive). For `Cc1ccc(Sc2cnccc2C#N)cc1`, the AC50 is > 42 µM (inactive). For the molecule `CS(=O)(=O)c1ccc(Cl)c(C(=O)O)c1`, the AC50 is > 42 µM (inactive). For the molecule `CC1(C)C2CC[C@]3(C)C(CC=C4[C@@H]5C[C@@](C)(CO)[C@@H](O)C[C@]56C[C@@H](OC6=O)[C@]43C)[C@@]2(C)CC[C@@H]1O` (some centres not stated), the AC50 is > 42 µM (inactive).

For the molecule `CCC(C)NCCCCOc1cc(C)cc(C(C)C)c1` (configuration not stated), the AC50 is > 42 µM (inactive). Consider `COc1ccc(NC2CCCN(C(=O)CCc3scnc3C)C2)cc1` (configuration not stated), for which the AC50 is > 42 µM (inactive).

As for `Cc1cccc(N2CN=c3s/c(=C\c4ccccn4)c(=O)n3C2)c1`, the AC50 is > 42 µM (inactive). In the case of `Cc1ccc(N2CN(CCc3ccccc3)CNC2=S)cc1`, the AC50 was > 42 µM (inactive). The result for `COc1ccc(N2CCN(C(=O)C3CCCN(S(=O)(=O)c4ccc5c(c4)oc(=O)n5C)C3)CC2)cc1` (configuration not stated) reads > 21 µM (inactive). Take `Cc1nc2c3ccccc3nc(NNC(=O)CCC(=O)N3CCCC(C)C3)n2n1` (configuration not stated): the AC50 is > 42 µM (inactive). In the case of `COc1ccccc1CNC(=O)C1CCC(CNS(=O)(=O)c2ccc(C)cc2)CC1` (configuration not stated), the AC50 is > 42 µM (inactive). For the molecule `COc1cccc(N=Nc2c(=O)[nH]n3c(=O)cc(C)[nH]c23)c1`, the AC50 was > 42 µM (inactive). On to `O=C(CSc1nc(=O)n2ccccc2n1)N1CCN(c2ccccc2)CC1`, for which the AC50 is > 42 µM (inactive). With `O=S(=O)(Cc1ccccc1)N1CCN(c2ncccn2)CC1` the figure was > 42 µM (inactive). As for `O=C1NC(Cc2c[nH]c3ccccc23)C(=O)N1Cc1ccc(CN2C(=O)NC(Cc3c[nH]c4ccccc34)C2=O)cc1` (configuration not stated), the AC50 was > 42 µM (inactive). For `O=C(NC1CCCCC1)c1ccc2snnc2c1`, the AC50 was > 42 µM (inactive). The result for `COc1ccccc1NC(=O)COC(=O)CC(C)(C)CC1=NS(=O)(=O)c2ccccc2N1` reads > 42 µM (inactive); that for `CCOP(=O)(Cc1cc(C(=O)CC)c(C)o1)OCC`, > 42 µM (inactive); that for `O=S(=O)(NCc1cccc(C(F)(F)F)c1)NCc1ccccc1F`, > 42 µM (inactive). With `CCNC(=S)NNC(=O)c1ccc(=O)n(Cc2ccccc2)c1` the figure was > 42 µM (inactive); with `CC(=O)Nc1cccc(C(=O)OCC(=O)NCc2ccc(F)cc2)c1`, > 42 µM (inactive); with `N#Cc1cc2c(nc1SCc1cccnc1)CCC2`, > 42 µM (inactive). The result for `CCc1cc2c(NCCO)ncnc2s1` reads > 42 µM (inactive); that for `Cc1ccccc1C(=O)NNC(=S)Nc1cccc(C(F)(F)F)c1`, > 42 µM (inactive). `Cc1nnc(SCC(=O)NCc2ccccc2Cl)[nH]c1=O`: the AC50 was > 42 µM (inactive).

Turning to `CN(CC(=O)Nc1sccc1C#N)Cc1ccccc1`, the AC50 is > 42 µM (inactive). As to `CCCCn1c2nc3ccccc3nc2c2c(=O)n(CCC)cnc21`, the AC50 is > 42 µM (inactive). For the molecule `O=C(CCC(=O)OC(C(=O)c1ccccc1)c1ccccc1)Nc1ccccc1` (configuration not stated), the AC50 is > 21 µM (inactive). As for `C=CCn1cc(C(C)=O)c(=O)[nH]c1=O`, the AC50 is > 42 µM (inactive). Turning to `Cc1ccc(SC[C@H](C)CN2CC[C@H](C)CCC2=O)cc1`, the AC50 was > 42 µM (inactive).

On to `CC(C)(C)c1ccc(-c2nc(C=O)c3ccccn23)cc1`, for which the AC50 was > 42 µM (inactive).

With `COc1ccc(NC2=C(C)C(=O)CC2)cc1`, the AC50 was > 42 µM (inactive). `Cc1ccc(NC(=S)NNC(=O)c2ccc(N3CCOCC3)c([N+](=O)[O-])c2)cc1C`: the AC50 is > 42 µM (inactive).

Consider `CCc1nc2ccccc2c(C(=O)OC2CCCCC2=O)c1C` (configuration not stated), for which the AC50 was > 42 µM (inactive).

On to `O=C(O)CCc1ccc(-c2ccccc2)n1NC(=O)c1cccs1`, for which the AC50 was > 42 µM (inactive).

With `O=C(CSc1nc(-c2ccccc2)nc2ccc(F)cc12)Nc1cccc(C(=O)O)c1`, the AC50 is > 42 µM (inactive). For `Cc1ccc(NC(=O)C(CC(C)C)NC(=O)C2CCC(C)CC2)nc1` (configuration not stated), the AC50 was > 42 µM (inactive).

On to `O=C1c2cccc3c(N4CCCCC4)ccc(c23)C(=O)N1CCO`, for which the AC50 is > 42 µM (inactive). On to `Cc1cccc(-[n+]2c(-c3cccc(Br)c3)[nH]c3nc4ccccc4nc32)c1`, for which the AC50 is > 42 µM (inactive). For `COC(=O)C1CN(C#N)N(c2ccc(Cl)cc2)C12c1ccccc1-c1ccccc12` (configuration not stated), the AC50 was > 42 µM (inactive).

Turning to `Oc1cccc(/C=N/N2CCN(c3ccccn3)CC2)c1`, the AC50 was > 21 µM (inactive). Turning to `CCCCc1n[nH]c(=S)n1Cc1ccc(C)cc1`, the AC50 was > 42 µM (inactive). For the molecule `CCC(=O)Nc1nc(CC(=O)Nc2ccccc2OC)cs1`, the AC50 is > 42 µM (inactive). Regarding `O=C(O)CN(c1ccccn1)S(=O)(=O)c1ccc(Cl)cc1`, the AC50 is > 42 µM (inactive). On to `N#CCN(N=Nc1ccccc1)c1ccccc1`, for which the AC50 was > 42 µM (inactive). For `CC(C)c1ccc(NC(=O)COc2nnc(-c3cccs3)c(-c3cccs3)n2)cc1`, the AC50 was > 42 µM (inactive).

Regarding `COc1ccc(NC(=O)Nc2ccccc2C(=O)N2CCCC2)cc1`, the AC50 was 1.83 µM. Turning to `O=C(N/N=C/C(Br)=C/c1ccccc1)c1cccnc1`, the AC50 is > 42 µM (inactive). Regarding `Cc1cccc(C)c1NC(=O)C1(N(Cc2ccco2)C(=O)CC2NC(=O)NC2=O)CCCCC1` (configuration not stated), the AC50 is > 42 µM (inactive).

As to `COc1ccc(N2C(=O)CSC2c2ccc([N+](=O)[O-])cc2)cc1` (configuration not stated), the AC50 was > 42 µM (inactive). As for `CN(C)S(=O)(=O)c1ccc(C(=O)/C=C/c2cccnc2)cc1`, the AC50 is > 42 µM (inactive).

Consider `CCN(CC)CCNC(=O)CCn1c(=S)[nH]c2cc3c(cc2c1=O)OCO3`, for which the AC50 was > 42 µM (inactive). With `COc1ccc(/C=N/NC(=O)c2c(C)nc3ccccn23)cc1[N+](=O)[O-]` the figure was > 42 µM (inactive). With `Fc1ccc(-c2cc(C(F)(F)F)nc(NCc3cccs3)n2)cc1`, the AC50 is > 42 µM (inactive). With `O=C(/C(=N\Nc1ccc(Br)cc1)Sc1nnnn1-c1ccccc1)c1ccccc1`, the AC50 was > 42 µM (inactive). In the case of `OC1CN=C2CCCc3c2n(c2ccc(Cl)cc32)C1` (configuration not stated), the AC50 is > 42 µM (inactive). On to `CN(C)S(=O)(=O)c1cc(NC(=O)CSc2nn(-c3ccc(Cl)cc3)c(=S)s2)ccc1Cl`, for which the AC50 was > 42 µM (inactive). On to `Cc1ccc(C(C(=O)Nc2ccc3c(c2)OCO3)N(C)C(=O)Cc2c[nH]c3ccccc23)cc1` (configuration not stated), for which the AC50 is > 42 µM (inactive).

As a reminder, the AC50 is the concentration giving half of the maximal activity seen.

(Values after PubChem BioAssay AID463199 (Broad Institute, 2010).)
